This is an account of results in patent publication US7579370B2, “Fused heterocycles” (Sepracor Inc., priority 2006, dated 2009).

Usually IC50 stands for the point on the concentration scale where inhibition reaches its midpoint.

Molecules are shown by their SMILES.

For test [1], the system named is Sprague-Dawley rats. Kind of test: Rat Chung model (L5 spinal nerve ligation), paw withdrawal threshold with von Frey hairs. It counts as in vivo. As to the method: Adult male Sprague-Dawley rats, weighing 200-230 g at the time of surgery, were used. They were housed in groups of 4 in an air-conditioned room on a 12 h light/dark cycle. Food and water were available ad libitu. The animals were allowed to acclimatize to the experimental environment for three days by leaving them on a lifted metal mesh for at least 40 min. The baseline paw withdrawal threshold (PWT) was examined using a series of graduated von Frey hairs for 3 consecutive days before surgery and re-assessed on the 7th day after surgery and on the 11th to 14th day before drug dosing. The rat Chung model was prepared as described by Kim and Chung (1992). The rat was anaesthetized with 5% isoflurane mixed with oxygen (2 L per min) followed by an i.p. injection of sodium pentobarbitone at 50 mg/kg. The back was shaved and sterilized with 75% ethanol. The animal was placed in a prone position and a para-medial incision was made on the skin covering L4-6 level. The L5 spinal nerve was carefully isolated and tightly ligated with 6/0 silk suture. The wound was then closed in layers after a complete hemostasis. A single dose of antibiotics (Amoxipen 15 mg/rat, ip) was routinely given for prevention of infection after surgery. The animals were placed in a temperature controlled recovery chamber until fully awake before being returned to the home cage. The animals were placed in individual Perspex boxes on a raised metal mesh for at least 40 min before the test. Starting with the filament of lowest force, each filament was applied perpendicularly to the center of the ventral surface of the paw until slightly bent for 6 seconds. If the animal withdrew or lifted the paw upon stimulation, then a hair with force immediately lower than that tested was used. If no response was observed, then a hair with force immediately higher was tested. The lowest amount of force required to induce reliable responses (positive in 3 out of 5 trials) was recorded as the value of PWT. Only those animals with significant allodynia (PWT≦3.5 g) were selected for drug dosing experiments. The rats in a neuropathic pain state were randomly divided into experimental groups: Vehicle group and 1 group had 8 rats and the gabapentin group had 9 rats. The drug test was carried out 12 to 14 days after surgery. Isotonic 50 mM phosphate buffer (PB), dosed orally at 3 mL/kg, served as the vehicle control. Gabapentin was dissolved in normal saline and given orally at 100 mg/kg. […] The PWT was assessed at 1, 3, 6 and 24 h following drug or vehicle administration. The animals were returned to their home cage for a break (about 30 min) between two neighboring testing time points. One-way analysis of variance (ANOVA) (SPSS software) was used for statistical analysis to compare different groups on the same time points. Paired Student -t test was used to compare different time points in the same group. The significance level was set at P<0.05.

The target in test [2] is Human DAAO (Homo sapiens, UniProt P14920). Kind of test: D-Amino Acid Oxidase enzyme assay (D-serine, horseradish peroxidase/Amplex Red coupled). It counts as biochemical. To be noted: D-serine 5 mM, pH 7.4; read-out: Human DAAO Inhibition [IC50].
Sequence of Human DAAO (P14920 whole entry): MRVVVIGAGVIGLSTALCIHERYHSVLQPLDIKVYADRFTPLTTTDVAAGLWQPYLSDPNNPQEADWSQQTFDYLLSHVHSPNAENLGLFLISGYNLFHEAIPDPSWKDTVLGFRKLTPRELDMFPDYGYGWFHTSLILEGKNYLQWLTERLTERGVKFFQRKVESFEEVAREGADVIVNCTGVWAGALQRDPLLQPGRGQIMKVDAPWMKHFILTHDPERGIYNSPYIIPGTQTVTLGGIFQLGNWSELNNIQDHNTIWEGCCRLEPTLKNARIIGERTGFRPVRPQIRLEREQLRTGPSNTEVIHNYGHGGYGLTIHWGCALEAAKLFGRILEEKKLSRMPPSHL
Experimental: This coupled reaction uses the enzyme substrate Amplex Red (Molecular Probes), which is converted to the fluorescent reaction product, resorufin (excitation 530-560 nm; emission ˜590 nm). Although DAAO has a higher pH optimum, all reagents were prepared in 50 mM sodium phosphate buffer at pH 7.4 and inhibition curves were generated at this pH.
The reactions were initiated by addition of DAAO enzyme while the fluorescence was monitored. […] Inhibition curves were generated in the presence of varying concentrations of the inhibitor and IC50 values were calculated for each inhibitor.

Regarding `O=C(O)c1cc2occc2[nH]1` [Compound 11, 4H-Furo[3,2-b]pyrrole-5-carboxylic acid], the “Effect on paw withdrawal threshold (PWT)” value in test [1] (oral dose of 10 mg/kg) is listed as “significantly elevated the PWT”.

Take `O=C(O)c1cc2occ(CCc3ccccc3)c2[nH]1` [Compound 17, 3-phenethyl-4H-furo[3,2-b]pyrrole-5-carboxylic acid]: the IC50 in test [2] is less than 1 µM.

On to `O=C(O)c1cc2oc(Cc3ccccc3)cc2[nH]1` [Compound 24, 2-benzyl-4H-furo[3,2-b]pyrrole-5-carboxylic acid], for which the IC50 in test [2] was less than 100 µM.

Regarding `O=C(O)c1cc2occ(Cc3ccccc3)c2[nH]1` [Compound 26, 3-benzyl-4H-furo[3,2-b]pyrrole-5-carboxylic acid], in test [2], the IC50 was less than 100 µM.

Consider `C=Cc1coc2cc(C(=O)O)[nH]c12` [Compound 32, 3-vinyl-4H-furo[3,2-b]pyrrole-5-carboxylic acid], for which the IC50 in test [2] was less than 0.1 µM.

Take `C/C=C\c1coc2cc(C(=O)O)[nH]c12` [Compound 46, (Z)-3-(prop-1-enyl)-4H-furo[3,2-b]pyrrole-5-carboxylic acid]: in test [2], the IC50 was less than 100 µM.

As for `O=C(O)c1cc2occ(/C=C/c3ccccc3)c2[nH]1` [Compound 48, (E)-3-Styryl-4H-furo[3,2-b]pyrrole-5-carboxylic acid], the IC50 in test [2] was less than 100 µM.

Take `NCC1(CC(=O)O)CCCCC1` [Gabapentin]: in test [1] (orally dosed at 100 mg/kg), the “Course of the effect on PWT after the peak” value is “gradually declined from 6 hours onwards”, the “Time at which the effect on PWT commenced after dosing” value is on record as “first hour” and the “Time of peak effect on PWT after dosing” value turned out to be 3 h. The “Effect on paw withdrawal threshold (PWT)” value in test [1] (orally dosed at 100 mg/kg, positive control) is given as “significantly increased the PWT”.
